Reference: the supplement of paper PMC10307832

Columns and labels:
Assay in all cases: relative viability (nuclei count vs DMSO), 5 days (fraction); higher = more cells survive
NCI-H1944 = tested on: NCI-H1944
In short: (§1)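 Lung cancer cell lines in 1536-well plates were dosed by pin tool the day after seeding, either with one drug alone or with a fixed anchor-drug dose plus five library-drug doses (not always all listed) in √10 steps. After 5 days, cells were fixed and their nuclei stained in one step (final 0.05% Triton X-100, 1% formaldehyde, 1 ug/ml Hoechst), then counted on 4× images. Relative viability is the nuclei count in treated wells divided by that in vehicle wells. Values are medians of duplicate plates.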

NCI-H1395 = tested on: NCI-H1395
In short: as §1

NCI-H460 = tested on: NCI-H460
In short: as §1

UMC-11 = tested on: UMC-11
In short: as §1

LOU-NH91 = tested on: LOU-NH91
In short: as §1

RERF-LC-KJ = tested on: RERF-LC-KJ
In short: as §1

NCI-H1755 = tested on: NCI-H1755
In short: as §1

LU99A = tested on: LU99A
In short: as §1

ABC-1 = tested on: ABC-1
In short: as §1

NCI-H1793 = tested on: NCI-H1793
In short: as §1

NCI-H1651 = tested on: NCI-H1651
In short: as §1

NCI-H3122 = tested on: NCI-H3122
In short: as §1

NCI-H2228 = tested on: NCI-H2228
In short: as §1

CAL-12T = tested on: CAL-12T
In short: as §1

NCI-H2087 = tested on: NCI-H2087
In short: as §1

NCI-H2405 = tested on: NCI-H2405
In short: as §1

NCI-H2170 = tested on: NCI-H2170
In short: as §1

ChaGo-K-1 = tested on: ChaGo-K-1
In short: as §1

HCC-78 = tested on: HCC-78
In short: as §1

LC-2-ad = tested on: LC-2-ad
In short: as §1

HCC-366 = tested on: HCC-366
In short: as §1

PC-3 [JPC-3] = tested on: PC-3 [JPC-3]
In short: as §1

`Nc1ccn([C@@H]2O[C@H](CO)[C@@H](O)[C@@H]2O)c(=O)n1` [Cytarabine] + COc1cccc2cc(-c3nc([C@H]4CC[C@H](C(=O)O)CC4)n4ncnc(N)c34)[nH]c12 [OSI-027] (partner 0.5 µM) gave a relative viability (NCI-H1944; first compound 0.005 µM) of 0.313, a relative viability (NCI-H1944; first compound 0.01581 µM) of 0.239 and a relative viability (NCI-H1944; first compound 0.05 µM) of 0.214. It also gave a relative viability (NCI-H1944; first compound 0.1581 µM) of 0.155, a relative viability (NCI-H1944; first compound 0.5 µM) of 0.133 and a relative viability (NCI-H1395; first compound 0.005 µM) of 0.592. The relative viability (NCI-H1395; first compound 0.01581 µM) was 0.484, the relative viability (NCI-H1395; first compound 0.05 µM) was 0.369 and the relative viability (NCI-H1395; first compound 0.1581 µM) was 0.349. The relative viability (NCI-H1395; first compound 0.5 µM) was 0.328, the relative viability (NCI-H460; first compound 0.005 µM) was 0.384 and the relative viability (NCI-H460; first compound 0.01581 µM) was 0.486. It also gave a relative viability (NCI-H460; first compound 0.05 µM) of 0.301, a relative viability (NCI-H460; first compound 0.1581 µM) of 0.055 and a relative viability (NCI-H460; first compound 0.5 µM) of 0.0359. For the same compound, the relative viability (UMC-11; first compound 0.005 µM) was 0.314, the relative viability (UMC-11; first compound 0.01581 µM) was 0.418 and the relative viability (UMC-11; first compound 0.05 µM) was 0.386. The relative viability (UMC-11; first compound 0.1581 µM) was 0.226, the relative viability (UMC-11; first compound 0.5 µM) was 0.226 and the relative viability (LOU-NH91; first compound 0.005 µM) was 0.664. It also gave a relative viability (LOU-NH91; first compound 0.01581 µM) of 0.739, a relative viability (LOU-NH91; first compound 0.05 µM) of 0.597 and a relative viability (LOU-NH91; first compound 0.1581 µM) of 0.486. For the same compound, the relative viability (LOU-NH91; first compound 0.5 µM) was 0.585, the relative viability (RERF-LC-KJ; first compound 0.005 µM) was 0.461 and the relative viability (RERF-LC-KJ; first compound 0.01581 µM) was 0.477. The relative viability (RERF-LC-KJ; first compound 0.05 µM) was 0.5, the relative viability (RERF-LC-KJ; first compound 0.1581 µM) was 0.391 and the relative viability (RERF-LC-KJ; first compound 0.5 µM) was 0.297. It also gave a relative viability (NCI-H1755; first compound 0.005 µM) of 0.574, a relative viability (NCI-H1755; first compound 0.01581 µM) of 0.578 and a relative viability (NCI-H1755; first compound 0.05 µM) of 0.561. For the same compound, the relative viability (NCI-H1755; first compound 0.1581 µM) was 0.318, the relative viability (NCI-H1755; first compound 0.5 µM) was 0.309 and the relative viability (LU99A; first compound 0.005 µM) was 0.287. It also gave a relative viability (LU99A; first compound 0.01581 µM) of 0.271, a relative viability (LU99A; first compound 0.05 µM) of 0.288 and a relative viability (LU99A; first compound 0.1581 µM) of 0.288. It also gave a relative viability (LU99A; first compound 0.5 µM) of 0.281, a relative viability (ABC-1; first compound 0.005 µM) of 0.41 and a relative viability (ABC-1; first compound 0.01581 µM) of 0.458. For the same compound, the relative viability (ABC-1; first compound 0.05 µM) was 0.463, the relative viability (ABC-1; first compound 0.1581 µM) was 0.379 and the relative viability (ABC-1; first compound 0.5 µM) was 0.259. It also gave a relative viability (NCI-H1793; first compound 0.005 µM) of 0.296, a relative viability (NCI-H1793; first compound 0.01581 µM) of 0.285 and a relative viability (NCI-H1793; first compound 0.05 µM) of 0.245. For the same compound, the relative viability (NCI-H1793; first compound 0.1581 µM) was 0.198, the relative viability (NCI-H1793; first compound 0.5 µM) was 0.197 and the relative viability (NCI-H1651; first compound 0.005 µM) was 0.792. The relative viability (NCI-H1651; first compound 0.01581 µM) was 0.675, the relative viability (NCI-H1651; first compound 0.05 µM) was 0.81 and the relative viability (NCI-H1651; first compound 0.1581 µM) was 0.442. It also gave a relative viability (NCI-H1651; first compound 0.5 µM) of 0.298, a relative viability (NCI-H3122; first compound 0.005 µM) of 0.953 and a relative viability (NCI-H3122; first compound 0.01581 µM) of 0.873. It also gave a relative viability (NCI-H3122; first compound 0.05 µM) of 0.811, a relative viability (NCI-H3122; first compound 0.1581 µM) of 0.461 and a relative viability (NCI-H3122; first compound 0.5 µM) of 0.125. It also gave a relative viability (NCI-H2228; first compound 0.005 µM) of 0.404, a relative viability (NCI-H2228; first compound 0.01581 µM) of 0.209 and a relative viability (NCI-H2228; first compound 0.05 µM) of 0.244. It also gave a relative viability (NCI-H2228; first compound 0.1581 µM) of 0.097, a relative viability (NCI-H2228; first compound 0.5 µM) of 0.0984 and a relative viability (CAL-12T; first compound 0.005 µM) of 0.697. For the same compound, the relative viability (CAL-12T; first compound 0.01581 µM) was 0.507, the relative viability (CAL-12T; first compound 0.05 µM) was 0.524 and the relative viability (CAL-12T; first compound 0.1581 µM) was 0.233. The relative viability (CAL-12T; first compound 0.5 µM) was 0.197, the relative viability (NCI-H2087; first compound 0.005 µM) was 0.406 and the relative viability (NCI-H2087; first compound 0.01581 µM) was 0.485. For the same compound, the relative viability (NCI-H2087; first compound 0.05 µM) was 0.416, the relative viability (NCI-H2087; first compound 0.1581 µM) was 0.192 and the relative viability (NCI-H2087; first compound 0.5 µM) was 0.121. For the same compound, the relative viability (NCI-H2405; first compound 0.005 µM) was 0.62, the relative viability (NCI-H2405; first compound 0.01581 µM) was 0.558 and the relative viability (NCI-H2405; first compound 0.05 µM) was 0.434. It also gave a relative viability (NCI-H2405; first compound 0.1581 µM) of 0.394, a relative viability (NCI-H2405; first compound 0.5 µM) of 0.325 and a relative viability (NCI-H2170; first compound 0.005 µM) of 0.543. The relative viability (NCI-H2170; first compound 0.01581 µM) was 0.513, the relative viability (NCI-H2170; first compound 0.05 µM) was 0.387 and the relative viability (NCI-H2170; first compound 0.1581 µM) was 0.303. It also gave a relative viability (NCI-H2170; first compound 0.5 µM) of 0.208, a relative viability (ChaGo-K-1; first compound 0.005 µM) of 0.465 and a relative viability (ChaGo-K-1; first compound 0.01581 µM) of 0.353. For the same compound, the relative viability (ChaGo-K-1; first compound 0.05 µM) was 0.247, the relative viability (ChaGo-K-1; first compound 0.1581 µM) was 0.165 and the relative viability (ChaGo-K-1; first compound 0.5 µM) was 0.212. The relative viability (HCC-78; first compound 0.005 µM) was 0.368, the relative viability (HCC-78; first compound 0.01581 µM) was 0.349 and the relative viability (HCC-78; first compound 0.05 µM) was 0.314. For the same compound, the relative viability (HCC-78; first compound 0.1581 µM) was 0.242, the relative viability (HCC-78; first compound 0.5 µM) was 0.258 and the relative viability (LC-2-ad; first compound 0.005 µM) was 0.734. The relative viability (LC-2-ad; first compound 0.01581 µM) was 0.69, the relative viability (LC-2-ad; first compound 0.05 µM) was 0.539 and the relative viability (LC-2-ad; first compound 0.1581 µM) was 0.344. It also gave a relative viability (LC-2-ad; first compound 0.5 µM) of 0.318, a relative viability (HCC-366; first compound 0.005 µM) of 0.823 and a relative viability (HCC-366; first compound 0.01581 µM) of 0.61. The relative viability (HCC-366; first compound 0.05 µM) was 0.558, the relative viability (HCC-366; first compound 0.1581 µM) was 0.213 and the relative viability (HCC-366; first compound 0.5 µM) was 0.06. It also gave a relative viability (PC-3 [JPC-3]; first compound 0.005 µM) of 0.607, a relative viability (PC-3 [JPC-3]; first compound 0.01581 µM) of 0.721 and a relative viability (PC-3 [JPC-3]; first compound 0.05 µM) of 0.727. It also gave a relative viability (PC-3 [JPC-3]; first compound 0.1581 µM) of 0.499 and a relative viability (PC-3 [JPC-3]; first compound 0.5 µM) of 0.454.
